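Assay format: 96-well plates, 48-hour exposure. At the GI50, growth is halved.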 Calls of active or inactive are those of the source. No stated cut-off is given here; in the data, active = GI50 up to about 1.1 µM and inactive = higher.

Among the test systems are CAKI-1; MDA-N; 786-0; NCI-H226; SK-MEL-28; HCT-116; OVCAR-5; TK-10; LOX IMVI; SF-268; MOLT-4; PC-3; MDA-MB-231; OVCAR-3; NCI-H460; DU-145; HCT-15; MCF7; COLO 205; HL-60.
Assay in all cases: NCI tumour cell line growth inhibition, 48 h

Consider `NCC(=O)Nc1ccccc1`, for which the GI50 in the test with CAKI-1, in the test on MDA-N, in the test with 786-0, in the test with NCI-H226, in the test with SK-MEL-28 and with HCT-116 was > 100 µM (inactive) each time. The GI50 in the test on OVCAR-5, with TK-10, in the test with LOX IMVI, in the test on SF-268, in the test with MOLT-4 and in the test with PC-3 was > 100 µM (inactive) each time. Also, the GI50 is 15.5 µM (inactive) with MDA-MB-231; > 100 µM (inactive) in the test with OVCAR-3; > 100 µM (inactive) in the test on NCI-H460; > 100 µM (inactive) in the test on DU-145; over 100 µM in the test with HCT-15.

`CCCCN1C(=O)c2c(Br)sc(Br)c2C1=O`: the GI50 is 67.8 µM (inactive) in the test on CAKI-1; 33 µM (inactive) with MDA-N; 37 µM (inactive) in the test with 786-0; 20.2 µM (inactive) in the test on MCF7; 51.1 µM (inactive) with NCI-H226; 43.9 µM (inactive) in the test on SK-MEL-28. Moreover, the GI50 in the test on HCT-116 was 24.9 µM (inactive); in the test on OVCAR-5, 30.4 µM (inactive); in the test on COLO 205, 19.5 µM (inactive); in the test on TK-10 it was 60 µM (inactive); with LOX IMVI, 32.6 µM (inactive); in the test with SF-268 it was 31.8 µM (inactive). Also, the GI50 in the test on MOLT-4 was 24.2 µM (inactive); in the test on PC-3 it was 28.8 µM (inactive); with MDA-MB-231, 26.9 µM (inactive); in the test with NCI-H460 it was 31.6 µM (inactive); in the test with DU-145 it was 36.4 µM (inactive); in the test on HCT-15, 25.7 µM.

For the compound `O=c1nc(N2CCCCC2)sc2[nH]c3ccccc3c12`, the GI50 in the test with CAKI-1 was > 100 µM (inactive); in the test on MDA-N, > 100 µM (inactive); in the test with 786-0 it was > 100 µM (inactive); with HL-60, > 100 µM (inactive); with SK-MEL-28, > 100 µM (inactive); in the test on OVCAR-5, 11.1 µM (inactive). Further, the GI50 in the test with COLO 205 was > 100 µM (inactive); with TK-10, 66.2 µM (inactive); in the test on LOX IMVI, 74.8 µM (inactive); in the test with SF-268 it was 54.3 µM (inactive); in the test on MOLT-4 it was > 100 µM (inactive); with PC-3, > 100 µM (inactive). The GI50 in the test on MDA-MB-231 was 78.7 µM (inactive); in the test with OVCAR-3 it was 88.9 µM (inactive); with NCI-H460, 98.2 µM (inactive); with DU-145, > 100 µM (inactive); in the test with HCT-15 it was over 100 µM.

Turning to `O=C1Cc2c(-c3ccccc3)cc(-c3ccc4ccccc4c3)nc2-c2ccccc2N1`, the GI50 with CAKI-1 is 3.25 µM (inactive); in the test on MDA-N, 8.53 µM (inactive); in the test with 786-0, 3.18 µM (inactive); in the test on MCF7, 13.9 µM (inactive); in the test with NCI-H226 it was 8.45 µM (inactive); in the test on SK-MEL-28, > 100 µM (inactive). In addition, the GI50 in the test with HCT-116 is 8.45 µM (inactive); with OVCAR-5, 24.7 µM (inactive); with COLO 205, 31.9 µM (inactive); in the test with TK-10, 12.3 µM (inactive); in the test with LOX IMVI, 16.7 µM (inactive); in the test on SF-268 it was 4.29 µM (inactive). Also, the GI50 with MOLT-4 is > 100 µM (inactive); with PC-3, 15.7 µM (inactive); with MDA-MB-231, 5.79 µM (inactive); with OVCAR-3 it was 8.05 µM (inactive); with NCI-H460, 11.4 µM (inactive); with DU-145 it was 34.5 µM (inactive). Also, the GI50 in the test on HCT-15 is 37.8 µM.

`O=S(=O)(c1ccccc1)n1c(C(O)c2ccncc2)cc2ccccc21` (stereo not given): the GI50 with CAKI-1 is 58.9 µM (inactive); in the test with MDA-N, 39.1 µM (inactive); with 786-0, 68.5 µM (inactive); in the test on MCF7 it was 20.9 µM (inactive); in the test with NCI-H226, 27 µM (inactive); in the test with SK-MEL-28, 55.1 µM (inactive). The GI50 in the test on HCT-116 was 43.1 µM (inactive); in the test with OVCAR-5 it was > 100 µM (inactive); in the test on COLO 205, 39.7 µM (inactive); with TK-10, 28.4 µM (inactive); in the test with LOX IMVI, 40.3 µM (inactive); with MOLT-4 it was 23.7 µM (inactive). Besides, the GI50 was 35.9 µM (inactive) with PC-3; 74.6 µM (inactive) in the test with MDA-MB-231; 46.8 µM (inactive) in the test with OVCAR-3; 26.2 µM (inactive) with NCI-H460; 40.5 µM (inactive) in the test on DU-145; 33.7 µM in the test with HCT-15.

For the compound `CCSC1=N/C(=C\c2ccc(N(C)C)cc2)C(Cl)=N1`, the GI50 in the test with CAKI-1, in the test with MDA-N, with 786-0, in the test with MCF7, with HL-60 and with NCI-H226 was > 100 µM (inactive) throughout. The GI50 with SK-MEL-28, in the test on HCT-116, in the test on OVCAR-5, with COLO 205, in the test on TK-10 and with SF-268 was > 100 µM (inactive) in each case. The GI50 in the test with MOLT-4, with PC-3, in the test on MDA-MB-231, with OVCAR-3, in the test with NCI-H460 and in the test on DU-145 was > 100 µM (inactive) in each case. Also, the GI50 with HCT-15 is over 100 µM.

Regarding `O=C(/C(=C\C(=O)c1cccs1)c1ccsc1)c1ccc(Br)cc1`, the GI50 with CAKI-1, with MDA-N, in the test with 786-0, with MCF7, in the test on HL-60 and in the test on NCI-H226 was > 100 µM (inactive) each time. The GI50 in the test on SK-MEL-28, in the test on HCT-116, in the test on COLO 205, in the test on TK-10, in the test on SF-268 and in the test with MOLT-4 was > 100 µM (inactive) each time. The GI50 in the test with PC-3 is > 100 µM (inactive); with MDA-MB-231, > 100 µM (inactive); in the test on NCI-H460, > 100 µM (inactive); with DU-145, > 100 µM (inactive); with HCT-15 it was over 100 µM.

As to `Nc1nc(=S)n(-c2ccc(Cl)cc2)c2nc3ccccc3cc12`, the GI50 is 30.1 µM (inactive) with CAKI-1; 90.8 µM (inactive) with MDA-N; 53.3 µM (inactive) in the test on 786-0; 15.4 µM (inactive) with MCF7; > 100 µM (inactive) in the test with HL-60; 50.6 µM (inactive) with NCI-H226. Besides, the GI50 with SK-MEL-28 was > 100 µM (inactive); with HCT-116, 40.7 µM (inactive); in the test on OVCAR-5 it was 83.2 µM (inactive); with COLO 205, 36 µM (inactive); with TK-10, 28.7 µM (inactive); in the test with LOX IMVI, 44.1 µM (inactive). Moreover, the GI50 in the test with SF-268 is 36.2 µM (inactive); with PC-3, 46.8 µM (inactive); with MDA-MB-231 it was 60.5 µM (inactive); in the test with OVCAR-3, 45 µM (inactive); in the test on NCI-H460, 46.2 µM (inactive); with DU-145 it was 43.6 µM (inactive). Moreover, in the test with HCT-15, the GI50 is 39.9 µM.

In the case of `CCC(C)N1CN(c2ccccc2)C2(CCN(CCCC(=O)c3ccc(F)cc3)CC2)C1=O` (stereo not given), the GI50 is 2.25 µM (inactive) in the test on CAKI-1; 11.7 µM (inactive) with MDA-N; > 100 µM (inactive) in the test with 786-0; 0.381 µM (active) in the test with MCF7; 4.76 µM (inactive) in the test with HL-60; 17.4 µM (inactive) in the test on SK-MEL-28. For the same compound, the GI50 with HCT-116 is 0.697 µM (active); with OVCAR-5, 0.839 µM (active); with COLO 205, 0.193 µM (active); with TK-10 it was 4.85 µM (inactive); in the test on LOX IMVI, 2.74 µM (inactive); in the test on SF-268, 6.7 µM (inactive). Further, the GI50 is 3.92 µM (inactive) in the test on MOLT-4; 10.6 µM (inactive) with PC-3; 10.8 µM (inactive) in the test on MDA-MB-231; 11.9 µM (inactive) in the test on OVCAR-3; 0.927 µM (active) with DU-145; 5.33 µM with HCT-15.

Consider `COc1ccc(/C=C2\C(=O)N(C3OC(COC(C)=O)C(OC(C)=O)C(OC(C)=O)C3OC(C)=O)c3ccccc3N=C2N)cc1` (stereo not given), for which the GI50 in the test on CAKI-1 is 31.4 µM (inactive); in the test on MDA-N it was 4.48 µM (inactive); in the test on 786-0, 17.5 µM (inactive); with MCF7, 19.1 µM (inactive); in the test on HL-60, 18.2 µM (inactive); in the test on SK-MEL-28, 23.9 µM (inactive). The GI50 was 19.7 µM (inactive) in the test with HCT-116; 33.9 µM (inactive) in the test with OVCAR-5; 15.6 µM (inactive) with COLO 205; 34 µM (inactive) in the test on TK-10; 24.5 µM (inactive) in the test on LOX IMVI; 32.5 µM (inactive) in the test with SF-268. In addition, the GI50 in the test on MOLT-4 is 18.3 µM (inactive); in the test with PC-3 it was 23.7 µM (inactive); in the test on MDA-MB-231, 43.5 µM (inactive); in the test on OVCAR-3 it was 23.2 µM (inactive); in the test with NCI-H460, 25.1 µM (inactive); in the test on DU-145 it was 25.7 µM (inactive). The compound also showed a GI50 in the test with HCT-15 of 12.9 µM.

For the compound `O=C(O)c1cc2c(cc1S(=O)(=O)O)C1C(C3C2C2(Cl)C(Cl)=C(Cl)C3(Cl)C2(Cl)Cl)C2(Cl)C(Cl)=C(Cl)C1(Cl)C2(Cl)Cl` (stereo not given), the GI50 with CAKI-1 is > 100 µM (inactive); in the test with MDA-N, 31.4 µM (inactive); with 786-0, 39.8 µM (inactive); with MCF7, 34.8 µM (inactive); in the test with HL-60, 2.43 µM (inactive); in the test on NCI-H226, 23.4 µM (inactive). Moreover, the GI50 in the test on SK-MEL-28 was 37.1 µM (inactive); with HCT-116 it was 17.4 µM (inactive); with OVCAR-5, 23.3 µM (inactive); in the test with COLO 205 it was 44.1 µM (inactive); with TK-10 it was > 100 µM (inactive); in the test with SF-268, 58.7 µM (inactive). Moreover, the GI50 is 27.6 µM (inactive) with MOLT-4; 41 µM (inactive) with PC-3; 24.4 µM (inactive) in the test on MDA-MB-231; 22.9 µM (inactive) in the test on OVCAR-3; 34.6 µM (inactive) with NCI-H460; 48.1 µM (inactive) with DU-145. Further, the GI50 in the test with HCT-15 is 45 µM.
